Data on 17 compounds can be found in US10975068B2, “6-aminopyridin-3-yl thiazoles as modulators of RORγT” (Janssen Pharmaceutica NV, priority 2016, dated 2021).

In test [1] the target is human RORγt ligand binding domain (RORγt LBD) (Homo sapiens (Human), UniProt P51449). Description: RORγt ThermoFluor® assay (thermal shift binding). The note with it: read-out: ThermoFluor® Assay, Kd. An outline of the steps: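 His-tagged human RORγt LBD (0.065 mg/mL) with 60 μM 1,8-ANS in 100 mM Hepes pH 7.0, 10 mM NaCl, 2.5 mM GSH, 0.002% Tween-20 was heated at 1 °C/min.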
Chain of human RORγt ligand binding domain (RORγt LBD) (P51449 other isoform, or with tags, fused parts or gaps): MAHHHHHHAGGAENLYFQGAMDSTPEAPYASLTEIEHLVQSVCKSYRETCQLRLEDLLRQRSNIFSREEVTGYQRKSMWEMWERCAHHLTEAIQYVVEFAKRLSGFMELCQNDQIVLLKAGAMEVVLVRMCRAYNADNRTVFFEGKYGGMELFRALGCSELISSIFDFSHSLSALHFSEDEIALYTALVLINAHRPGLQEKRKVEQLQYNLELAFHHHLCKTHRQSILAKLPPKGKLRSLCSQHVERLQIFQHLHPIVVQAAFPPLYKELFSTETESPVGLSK

For a further test, the target named is full-length human RORγt (Homo sapiens (Human), UniProt P51449). Description: RORγt (full-length human) reporter assay, Conditions B or C. The format is cell-based. The note with it: for inhibition at 1 µM: at 1 μM compound concentration; for inhibition at 1 µM / inhibition at 3 µM: read-out: RORγt (FL) Reporter Assay B or C, % inhibition; for inhibition at 3 µM: at 3 μM compound concentration; for RORγt (FL) Reporter Assay B or C, % inhibition (value marked *): marked *: footnote not given; for inhibition at 6 µM: read-out: RORγt (FL) Reporter Assay B or C, % inhibition @ 6 μM, Conditions B or C. In a few lines:
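HEK293T cells transiently co-transfected with GAL4-DBD–full-length human RORγt (nt 142-1635, NM_001001523.1) plus GAL4-firefly and CMV-Renilla luciferase reporters; compounds added 4-6 h post-transfection for 16-20 h in 1.3% FBS, 0.1% DMSO. Firefly signal normalized to DMSO and saturating reference compound, then to Renilla; IC50 from concentration plots.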
Background: A reporter such as luciferase makes a cellular process visible.

Setting [2] is: RORγt (FL) Reporter Assay B or C, IC50.
[3] abbreviates: read-out: RORγt (FL) Reporter Assay B or C, IC50.
Where [4] appears, read: Conditions B or C, read-out: RORγt (FL) Reporter Assay B or C, IC50.

pIC50, pKd: −log10 of the molar value. Read-outs that look alike come from different tables or passages of the source.

Chain of full-length human RORγt (P51449 other isoform, or with tags, fused parts or gaps): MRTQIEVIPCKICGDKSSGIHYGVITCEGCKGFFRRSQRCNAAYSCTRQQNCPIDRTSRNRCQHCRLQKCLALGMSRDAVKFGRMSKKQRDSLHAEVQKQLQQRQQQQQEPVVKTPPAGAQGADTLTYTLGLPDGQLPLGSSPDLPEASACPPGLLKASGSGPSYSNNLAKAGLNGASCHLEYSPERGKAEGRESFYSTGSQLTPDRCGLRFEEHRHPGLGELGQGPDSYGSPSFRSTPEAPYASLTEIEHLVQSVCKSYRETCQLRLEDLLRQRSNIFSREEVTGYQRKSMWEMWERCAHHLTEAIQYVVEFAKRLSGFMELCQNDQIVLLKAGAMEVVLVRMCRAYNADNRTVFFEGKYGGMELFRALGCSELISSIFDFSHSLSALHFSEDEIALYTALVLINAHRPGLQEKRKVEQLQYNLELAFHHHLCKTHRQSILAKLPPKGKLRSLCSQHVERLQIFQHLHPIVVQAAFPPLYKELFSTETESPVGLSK

In the case of `O=C(N[C@@H]1COC[C@H]1O)c1nc(C(=O)N2C3CCC2CC3)c(-c2cnc(N[C@@H](C3CC3)C(F)(F)F)cc2C(F)F)s1` [Example 442, 4-((1s,4s)-7-Azabicyclo[2.2.1]heptane-7-carbonyl)-5-[6-[[(1S)-1-cyclopropyl-2,2,2-trifluoro-ethyl]amino]-4-(difluoromethyl)-3-pyridyl]-N-[(3R,4S)-4-hydroxytetrahydrofuran-3-yl]thiazole-2-carboxamide], the pKd (commonly −log10 of the Kd, conventionally taken in molar units) in test [1] is 8.80. The pIC50 (in general, −log10 of the IC50, conventionally taken in molar units) at full-length human RORγt (setting [2]) was 6.49. The inhibition (usually the relative decrease from the control value, in per cent) at 1 µM at full-length human RORγt stood at 96%.

In the case of `C[C@H](NC(=O)c1nc(C(=O)N2CCC[C@@H]2C)c(-c2cnc(NC3(C)CCC3)cc2C(F)F)s1)C(C)(C)O` [Example 322, 5-(4-(Difluoromethyl)-6-((1-methylcyclobutyl)amino)pyridin-3-yl)-N—((S)-3-hydroxy-3-methylbutan-2-yl)-4-((S)-2-methylpyrrolidine-1-carbonyl)thiazole-2-carboxamide], the pKd in test [1] is 8.74. At full-length human RORγt, the inhibition at 3 µM was determined as 106%. The pIC50 at full-length human RORγt (setting [3]) is 7.31.

As to `CC[C@H](Nc1cc(C(F)F)c(-c2sc(C(=O)N[C@H]3COC[C@@H]3O)nc2C(=O)N2C3CCC2CC3)cn1)C(F)(F)F` [Example 209, 4-((1s,4s)-7-Azabicyclo[2.2.1]heptane-7-carbonyl)-5-(4-(difluoromethyl)-6-(((1S)-1-(trifluoromethyl)propyl)amino)-3-pyridyl)-N-((3S,4R)-4-hydroxytetrahydrofuran-3-yl]thiazole-2-carboxamide], the pKd in test [1] is 8.47. Also, the “RORγt (FL) Reporter Assay B or C, % inhibition (value marked *)” value (“RORγt … % inhibition (value marked *)” for short) on full-length human RORγt (Conditions B or C) is given as 99* %. At full-length human RORγt (setting [4]), the pIC50 was 7.34.

Take `C[C@H](Nc1cc(C(F)(F)F)c(-c2sc(C(=O)NCC3(O)CCC3)nc2C(=O)N2CCC[C@@H]2C)cn1)C1CC1` [Example 49, 5-(6-(((S)-1-Cyclopropylethyl)amino)-4-(trifluoromethyl)pyridin-3-yl)-N-((1-hydroxycyclobutyl)methyl)-4-((S)-2-methylpyrrolidine-1-carbonyl)thiazole-2-carboxamide]: the pKd in test [1] was 8.48. Also, the “RORγt … % inhibition (value marked *)” value on full-length human RORγt (Conditions B or C) is reported as 99* %. The pIC50 at full-length human RORγt (setting [4]) is 8.12.

As for `C[C@H]1CCCN1C(=O)c1nc(C(=O)NCC(C)(C)O)sc1-c1cnc(NCC2(C)CC2)cc1C(F)(F)F` [Example 278, N-(2-Hydroxy-2-methyl-propyl)-5-[6-[(1-methylcyclopropyl)methylamino]-4-(trifluoromethyl)-3-pyridyl]-4-[(2S)-2-methylpyrrolidine-1-carbonyl]thiazole-2-carboxamide], the negative-log Kd (pKd) in test [1] is 8.13. In addition, the inhibition at 3 µM on full-length human RORγt turned out to be 100%. For the same compound, the pIC50 on full-length human RORγt (setting [3]) is 7.40.

`CC(C)(C)Nc1cc(C(F)F)c(-c2sc(C(=O)N[C@H]3CC[C@H](O)C3)nc2C(=O)N2C3CCC2CC3)cn1` [Example 413, 4-((1s,4s)-7-Azabicyclo[2.2.1]heptane-7-carbonyl)-5-[6-(tert-butylamino)-4-(difluoromethyl)-3-pyridyl]-N-[(1S,3S)-3-hydroxycyclopentyl]thiazole-2-carboxamide]: the negative-log Kd (pKd) in test [1] is 9.09. In addition, the pIC50 against full-length human RORγt (setting [2]) is 7.70. The inhibition at 1 µM at full-length human RORγt stood at 133%.

`C[C@H](CO)NC(=O)c1nc(C(=O)N2CC(F)(F)C[C@@H]2C)c(-c2cnc(N[C@@H](C)C(F)(F)F)cc2C(F)F)s1` [Example 447, 4-[(2S)-4,4-Difluoro-2-methyl-pyrrolidine-1-carbonyl]-5-[4-(difluoromethyl)-6-[[(1S)-2,2,2-trifluoro-1-methyl-ethyl]amino]-3-pyridyl]-N-[(1R)-2-hydroxy-1-methyl-ethyl]thiazole-2-carboxamide]: the negative logarithm of the Kd (pKd) in test [1] was 8.68. Further, the inhibition at 3 µM at full-length human RORγt stood at 89%. Besides, the pIC50 at full-length human RORγt (setting [3]) is 7.12.

Take `C[C@@H](Nc1cc(C(F)(F)F)c(-c2sc(C(=O)NCC(C)(C)O)nc2C(=O)N2CCC(F)CC2)cn1)C1CC1` [Example 29, (R)-5-(6-((1-Cyclopropylethyl)amino)-4-(trifluoromethyl)pyridin-3-yl)-4-(4-fluoropiperidine-1-carbonyl)-N-(2-hydroxy-2-methylpropyl)thiazole-2-carboxamide]: in test [1], the pKd is 7.66. Moreover, on full-length human RORγt (setting [4]), the pIC50 is 7.66. On full-length human RORγt, the inhibition at 6 µM amounted to 105%.

On to `C[C@H](NC(=O)c1nc(C(=O)N2C3CCC2CC3)c(-c2cnc(N[C@@H](C3CC3)C(F)(F)F)cc2C(F)F)s1)C(C)(C)O` [Example 317, 4-((1s,4s)-7-Azabicyclo[2.2.1]heptane-7-carbonyl)-5-(6-(((S)-1-cyclopropyl-2,2,2-trifluoroethyl)amino)-4-(difluoromethyl)pyridin-3-yl)-N—((S)-3-hydroxy-3-methylbutan-2-yl)thiazole-2-carboxamide], for which the negative-log Kd (pKd) in test [1] was 8.62. In addition, the negative-log IC50 (pIC50) at full-length human RORγt (setting [2]) was 7.85. Also, the inhibition at 3 µM on full-length human RORγt turned out to be 106%.

On to `CC[C@H](Nc1cc(C(F)F)c(-c2sc(C(=O)N[C@@H](C)[C@@H](C)O)nc2C(=O)N2CCC[C@@H]2C)cn1)C(F)(F)F` (relative stereo) [Example 219, 5-(4-(Difluoromethyl)-6-(((S)-1,1,1-trifluorobutan-2-yl)amino)pyridin-3-yl)-N-((2S*,3R*)-3-hydroxybutan-2-yl)-4-((S)-2-methylpyrrolidine-1-carbonyl)thiazole-2-carboxamide], for which, in test [1], the pKd was 8.39. Moreover, the “RORγt … % inhibition (value marked *)” value at full-length human RORγt (Conditions B or C) was 112* %. Also, the negative-log IC50 (pIC50) at full-length human RORγt (setting [4]) is 7.70.

Regarding `C[C@H](Nc1cc(C(F)F)c(-c2sc(C(=O)NC3CCC3O)nc2C(=O)N2C3CCC2CC3)cn1)C(F)(F)F` (stereo partly drawn) [Example 290, 4-((1s,4s)-7-Azabicyclo[2.2.1]heptane-7-carbonyl)-5-(4-(difluoromethyl)-6-(((S)-1,1,1-trifluoropropan-2-yl)amino)pyridin-3-yl)-N-(-trans-2-hydroxycyclobutyl)thiazole-2-carboxamide], the pKd in test [1] was 8.20. The inhibition at 3 µM on full-length human RORγt was found to be 103%. Further, at full-length human RORγt (setting [3]), the pIC50 was 8.19.

Regarding `C[C@H]1CCCN1C(=O)c1nc(C(=O)N[C@H](C)C(C)(C)O)sc1-c1cnc(N[C@H](C)C(F)(F)F)cc1C(F)F` [Example 306, 5-(4-(Difluoromethyl)-6-(((R)-1,1,1-trifluoropropan-2-yl)amino)pyridin-3-yl)-N—((R)-3-hydroxy-3-methylbutan-2-yl)-4-((S)-2-methylpyrrolidine-1-carbonyl)thiazole-2-carboxamide], in test [1], the negative logarithm of the Kd (pKd) was 8.00. The inhibition at 3 µM on full-length human RORγt turned out to be 104%. At full-length human RORγt (setting [3]), the pIC50 was 6.89.

Regarding `CC[C@H](Nc1cc(C(F)F)c(-c2sc(C(=O)NC3CCS(=O)(=O)CC3)nc2C(=O)N2CC(F)(F)C[C@@H]2C)cn1)C(F)(F)F` [Example 426, 4-[(2S)-4,4-Difluoro-2-methyl-pyrrolidine-1-carbonyl]-5-[4-(difluoromethyl)-6-[[(1S)-1-(trifluoromethyl)propyl]amino]-3-pyridyl]-N-(1,1-dioxothian-4-yl)thiazole-2-carboxamide], the negative-log Kd (pKd) in test [1] was 9.43. For the same compound, at full-length human RORγt, the inhibition at 3 µM stood at 96%. The pIC50 on full-length human RORγt (setting [3]) is 7.10.

With `C[C@H]1CCCN1C(=O)c1nc(C(=O)NCC(C)(C)O)sc1-c1cnc(NC(C)(C)C)cc1C(F)F` [Example 265, 5-[6-(tert-Butylamino)-4-(difluoromethyl)-3-pyridyl]-N-(2-hydroxy-2-methyl-propyl)-4-[(2S)-2-methylpyrrolidine-1-carbonyl]thiazole-2-carboxamide], the pKd in test [1] was 8.19. In addition, the inhibition at 3 µM on full-length human RORγt turned out to be 98%. For the same compound, the negative-log IC50 (pIC50) at full-length human RORγt (setting [3]) is 7.12.

On to `C[C@H](Nc1cc(C(F)F)c(-c2sc(C(=O)N[C@@H]3CC[C@@H](O)C3)nc2C(=O)N2CC(F)(F)C[C@@H]2C)cn1)C(F)(F)F` [Example 410, 4-[(2S)-4,4-Difluoro-2-methyl-pyrrolidine-1-carbonyl]-5-[4-(difluoromethyl)-6-[[(1S)-2,2,2-trifluoro-1-methyl-ethyl]amino]-3-pyridyl]-N-[(1R,3R)-3-hydroxycyclopentyl]thiazole-2-carboxamide], for which, in test [1], the pKd was 8.96. Further, the inhibition at 3 µM on full-length human RORγt turned out to be 97%. The pIC50 on full-length human RORγt (setting [3]) was 7.74.

For `C[C@H]1CCCN1C(=O)c1nc(C(=O)NCC2(O)COC2)sc1-c1cnc(NC2CCCC2)cc1C(F)F` [Example 73, (S)-5-(6-(Cyclopentylamino)-4-(difluoromethyl)pyridin-3-yl)-N-((3-hydroxyoxetan-3-yl)methyl)-4-(2-methylpyrrolidine-1-carbonyl)thiazole-2-carboxamide], the pKd in test [1] was 7.96. Also, on full-length human RORγt (Conditions B or C), the “RORγt … % inhibition (value marked *)” value is listed as 104* %. In addition, the pIC50 on full-length human RORγt (setting [4]) was 7.13.

Take `C[C@H](Nc1cc(C(F)(F)F)c(-c2sc(C(=O)NCC(C)(C)O)nc2C(=O)N2CCCC[C@@H]2C)cn1)C1CC1` [Example 39, 5-(6-(((S)-1-Cyclopropylethyl)amino)-4-(trifluoromethyl)pyridin-3-yl)-N-(2-hydroxy-2-methylpropyl)-4-((S)-2-methylpiperidine-1-carbonyl)thiazole-2-carboxamide]: the negative logarithm of the Kd (pKd) in test [1] is 9.92. Moreover, on full-length human RORγt (setting [4]), the pIC50 was 7.89. Besides, the inhibition at 6 µM at full-length human RORγt is 105%.
